{"source": "patent US20120308538A1", "about": "“PREVENTING SPOILAGE IN ALCOHOL FERMENTATIONS” (priority 2011, published 2012)", "key": {"lager yeast CBMS": {"system": "lager yeast CBMS", "experiment": "Cytotoxic effects of HBD-3 against the lager yeast", "assay_type": "cell-based, Saccharomyces pastorianus", "conditions": "data not shown", "description": "(§1) To test the activity of β-Defensin-3 against beer-spoiling bacteria, a defensin bioassay was carried out as described in the Methods section. Since our goal was to express HBD-3 in lager yeast, the cytotoxic effects of HBD-3 against the lager yeast CBMS was also examined. […] The minimum inhibitory concentration (MIC) values for HBD-3 against Lb. brevis and Lb. malefermentas were 5 μg/ml 0.5 μg/ml respectively. The LD-100 and MIC were lower than that required against other gram positive strains such as S. mutans, S. pyogenes, and […]. […] (data not shown)."}, "Lb. brevis": {"system": "Lb. brevis", "experiment": "In situ antimicrobial activity of HBD-3 secreted from yeast strains under fermentation conditions", "assay_type": "cell-based, Lactobacillus brevis", "conditions": "summary statement, spoilage bacteria", "description": "Yeast strains were grown up from single colonies in 3 mL YEP-Maltose medium (YEPM) and expanded to 2 liters. 40% (w/v) wort was reconstituted in water from spray-dried malt (Belgium) supplemented with 1 mM Zinc and autoclaved. The wort was diluted to give 1.02-1.060 g/mL density (10-15° Plato), and aerated. The yeast harvested from the 2 liter YEPM medium was resuspended in the diluted wort to give a yeast concentration of 1−1.5×10^7 cells/mL in either 250 ml sterile glass cylinders or in 2 L cylindro-conical EBC vessels. Wort was aerated once with compressed air, bubbling from the bottom of the vessel and anaerobic conditions were maintained by overlying with mineral oil. Flasks were incubated at a 45° angle, and incubated at 11-13° C. The density of the solution was measured every other day for 14 days. Samples were also used for the measurement of HBD-3 in the medium. At the end of the brewing period, yeast were recovered and stored for re-pitching if required. To test the efficacy of the HBD-3-yeast to prevent beer spoilage, individual beer spoilage bacterial strains (10^3/mL) were introduced along with pitching yeast. The surviving bacteria were quantified every other day along with viable yeast cells in the brew. The physical and chemical characteristics of the brew as well as taste and palatability were also measured with the help of healthy volunteers. […]"}, "[1]": {"system": "Lactobacillus brevis 1105", "experiment": "HBD-3 activity in beer fermentations: brew samples seeded with bacteria incubated with HBD-3", "assay_type": "cell-based", "conditions": "HBD-3 5 μg/mL; day 14 brew samples; seeded day 6 at 10^2 and 10^4 cfu/ml; two independent fermentations"}, "beer spoilage bacteria": {"system": "beer spoilage bacteria", "experiment": "Beer spoilage challenge in the bottled product (pilot scale 50 L fermentations)", "conditions": "bottled product from CM-PGK-51 fermentation; no freeze-thawing cycle; larger than usual amounts of bacteria", "description": "Pilot scale fermentations (50 L) were carried out using CM-PGK-51 as a starter culture."}, "Lactobacillus brevis": {"system": "Lactobacillus brevis", "assay_type": "cell-based", "description": "(§2) Cultures of Lactobacillus brevis L1055 or a control bacterium Staphylococcus aureus-were cultured at 37° C. overnight in MRS media (10 g litre^−1 universal peptone, 5 g litre^−1 meat extract, 5 g litre^−1 yeast extract, 20 g litre^−1 D(+)-glucose, 2 g litre^−1 K2HPO4, 2 g litre^−1 diammonium hydrogen citrate, 5 g litre NaOAc, 0.1 g litre^−1 MgSO4, 0.05 g litre^−1 MnSO4, final pH 6.5+/−0.2 at 37° C.). To prevent yeast growth in samples taken from fermentations seeded with L. brevis, the MRS medium was supplemented with cycloheximide at 10 μg/ml. The cultures were diluted to give a final densitiy of approximately 10^3 cells/mL. Synthetic HBD (0.5-10 μg/mL) was added to the bacterial cultures in a final volume of 100 μl volumes. CMBS cultures containing the pGREG, HBD-3-505V or HBD-3-506V were grown in overnight synthetic medium plus galactose (2%). The supernatants were concentrated (1000-fold) using molecular filtration membranes [Molecular Weight Cut Off (MWCO) 2000] ensuring all unspent sugar was removed from the medium. The concentrated supernatants were added to the bacterial cultures as described above. Following a two-hour incubation at 37° C., the number of bacterial colonies in each sample was determined following incubation on MRS plates containing cycloheximide at 37° C. for 48 hrs.\nas §1"}, "[2]": {"system": "Lactobacillus malifermentus", "assay_type": "cell-based", "description": "as §2, §1"}, "[3]": {"conditions": "synthetic HBD-3, two-hour incubation at 37° C."}}, "note": "Bridges are numbered along the chain shown (N, C = ends). Where no end group is shown, it is not given here."}
{"sequence": "GIINTLQKYYCRVRGGRCAVLSCLPKEEQIGKCSTRGRKCCRRKK (disulfide 11-40, 18-33, 23-41 (inferred)) [HBD-3, human β-defensin-3]", "values": [{"measurement": "HBD-3 concentrations at which lager yeasts were resistant", "setting": "lager yeast CBMS", "value": "up to 100 μg/ml"}, {"measurement": "reduction of bacterial load after quick freezing of the brew", "setting": "Lb. brevis", "value": "90-95%"}, {"measurement": "reduction of bacterial load in the wort", "setting": "[1]", "value": 100, "unit": "fold"}, {"measurement": "protective effects in beer spoilage challenge", "setting": "beer spoilage bacteria", "value": "did not reveal any protective effects"}, {"measurement": "minimum inhibitory concentration (MIC)", "setting": "Lactobacillus brevis; synthetic HBD-3", "value": 5, "unit": "µg/mL"}, {"measurement": "LD-100 (effectively killed at concentration)", "setting": "Lactobacillus brevis; [3]", "value": 10, "unit": "µg/mL"}, {"measurement": "minimum inhibitory concentration (MIC)", "setting": "[2]; synthetic HBD-3", "value": 0.5, "unit": "µg/mL"}, {"measurement": "LD-100 (effectively killed at concentration)", "setting": "[2]; [3]", "value": 1, "unit": "µg/mL"}]}
